# Measurements: patent publication US20170105971A1, “METHODS AND COMPOUNDS FOR THE TREATMENT OF BONE LOSS AND/OR PAIN” (priority 2015, published 2017)
# Entries after “also recorded” stand apart in the source; their conditions may differ. Like-named read-outs stand apart in the source and are kept apart here.
# Experiments:
# mice = assay: ACPA-induced pain (mechanical hypersensitivity) in mice, von Frey filaments; type: in vivo, mouse; conditions: 5 mg/kg s.c. once daily; C03 2 mg i.v.; p<0.01
# Description: Starting day 1, the PAD inhibitor 2-2-Chloroacetamide (C0267, Sigma Aldrich) was injected subcutaneously s.c. (in 100 μl saline with 5% DMSO) once daily (5 mg/kg/day) for 10 days.
# Withdrawal thresholds of the hind paws were assessed using von Frey filaments as previously described (Bas, D. B. et al., 2012). In brief, the mice were habituated in individual compartments on top of a wire-mesh surface (Ugo Basile) prior to experiment. On test days, mice were given time to acclimatize and then optiHair filaments (Marstock OptiHair) of increasing buckling force (0.5, 1, 2, 4, 8, 16, and 32 mN) were applied to the plantar surface of the paw until the filament bent slightly. A brisk withdrawal of the paw within 2-3 seconds was noted as a positive response. A 50% withdrawal threshold was calculated using the Dixon up-down method (Chaplan, S. R., et al., 1994) and results from both hind paws were averaged and presented as % of baseline values.
# Mφ-derived OCs = assay: Mφ-derived osteoclast culture, TRAP staining (OC numbers); type: cell-based, human; conditions: for unstimulated OC differentiation (OC numbers): RANKL and M-CSF, early PAD inhibition (at initiation of OC culture)
# ACPA-stimulated OCs [1] = assay: ACPA-stimulated osteoclastogenesis with inhibitor, TRAP staining; type: cell-based, human
# Source text: (§1) The medium was exchanged every three days.
# (§2) IL-8 was neutralized in the cell supernatants using an anti-IL-8/CXCL8 neutralizing antibody (clone MAB208, R&D systems, UK). PAD activity was inhibited using a pan-PAD inhibitor Cl-amidine (Cayman chemical, Michigan, USA), either at the initiation of the OC cultures or three days before the end of culturing.
# ACPA-stimulated OCs [2] = assay: ACPA-stimulated OC calcium phosphate resorption with inhibitor; type: cell-based, human; conditions: PADi added from the beginning of the OC cultures
# Source text: as §1, §2
# iDC-derived OCs = assay: iDC-derived osteoclast culture, TRAP staining (OC numbers); type: cell-based, human; conditions: RANKL and M-CSF
# Source text: as §1, §2
# OCs = assay: LDH cytotoxicity assay in OC culture supernatants; type: cell-based, human; conditions: OC cultures with PAD inhibitor
# Description: (§3) The LDH levels in the cell-free culture supernatants were measured using an LDH cytotoxicity assay kit (Roche Diagnostics Scandinavia AB, Bromma, Sweden) according to the manufacturer's instructions.
# [3] = test system: RA-derived synovial fibroblasts; assay: synovial fibroblast in vitro scratch assay (migration index); type: cell-based, human; conditions: PADi at similar doses as in OC cultures
# Description: (§4) Synovial fibroblasts were isolated from the synovial tissue of RA patients by enzymatic digestion. The cells were growth at 37° C. in 5% CO2 in Dulbecco's modified Eagle medium (DMEM, Sigma-Aldrich, Stockholm, Sweden) with 10% (v/v) heat-inactivated fatal cow serum (FCS, Sigma-Aldrich, Stockholm, Sweden), 100 U/ml penicillin, 100 μg/ml streptomycin and L-glutamine. The cells at passages 4-8 were used throughout this study. Twenty four-well plates were pre-coated with collagen (50 μg/ml), followed by 1 hour of blocking with 3% BSA (Sigma). A sufficient number of SFs were grown to 80-90% confluence and serum starved for 1-2 hours. The scratches were then made using a P-200 pipette tip. The floating cells were removed by washing with PBS. The cells were incubated with or without PAD inhibitors at the indicated concentration for 48 hours. Light microscope images were taken immediately at 0 and 5 hours after scratching. The images were analyzed using NIH ImageJ. The closure areas were normalized to medium control, and these values represent the migration index.
# [4] = test system: RA-derived synovial fibroblasts; assay: LDH cytotoxicity assay in synovial fibroblast supernatants; type: cell-based, human; conditions: PADi at similar doses as in OC cultures
# Description: as §4, §3
# [5] = test system: citrullinated targets in mature OCs; assay: immunohistochemistry of citrullinated targets in mature OCs with PAD inhibitor; type: cell-based, human; conditions: inhibitor added from the beginning of the cultures; mB02 staining
# Description: Murinized monoclonal IgG2a ACPAs (D10, B02, C07) and control antibody (E02) were used to investigate the presence of citrullinated proteins during OC maturation. A rabbit polyclonal anti-PAD2 (Cosmo Bio, Tokyo, Japan) and a monoclonal mouse anti-PADI4 (Abcam, Cambridge, UK) antibody were used to investigate the cellular expression of PAD enzymes during OC maturation. Mφ- and iDC-derived OCs were cultured in 8-well glass chamber slides.
# Cells at different stages of differentiation were fixed with 2% (vol/vol) formaldehyde (Sigma-Aldrich, Stockholm, Sweden) at 4° C. and stored at −70° C. until use. Following blocking of endogenous peroxidase and avidin-biotin activity, the slides were incubated with primary monoclonal antibodies. HRP conjugated anti-mouse antibody was used as a secondary antibody and developed with 3,3-diaminobenzidene (DAB) for 7 minutes. The slides were counterstained with Mayer's hematoxylin, dehydrated and permanently mounted and viewed using a light microscope (Reichert Polyvar 2 type 302001, Leica).
# [6] = test system: collagen-induced arthritis; conditions: Willis et al., cited from earlier work
# [7] = test system: antibody-mediated arthritis; conditions: Willis et al.; cited from earlier work
# mouse neutrophils = conditions: cited from earlier work
# human neutrophils = conditions: cited from earlier work
# [8] = mouse; cited from earlier work
# [9] = rat; cited from earlier work
# PAD4 [10] = target: T1, PAD4 (Homo sapiens, UniProt Q9UM07); set-up: endogenous in cells; host or cells: human neutrophils; conditions: cited from earlier work
# Target sequence in this assay (Q9UM07 whole entry): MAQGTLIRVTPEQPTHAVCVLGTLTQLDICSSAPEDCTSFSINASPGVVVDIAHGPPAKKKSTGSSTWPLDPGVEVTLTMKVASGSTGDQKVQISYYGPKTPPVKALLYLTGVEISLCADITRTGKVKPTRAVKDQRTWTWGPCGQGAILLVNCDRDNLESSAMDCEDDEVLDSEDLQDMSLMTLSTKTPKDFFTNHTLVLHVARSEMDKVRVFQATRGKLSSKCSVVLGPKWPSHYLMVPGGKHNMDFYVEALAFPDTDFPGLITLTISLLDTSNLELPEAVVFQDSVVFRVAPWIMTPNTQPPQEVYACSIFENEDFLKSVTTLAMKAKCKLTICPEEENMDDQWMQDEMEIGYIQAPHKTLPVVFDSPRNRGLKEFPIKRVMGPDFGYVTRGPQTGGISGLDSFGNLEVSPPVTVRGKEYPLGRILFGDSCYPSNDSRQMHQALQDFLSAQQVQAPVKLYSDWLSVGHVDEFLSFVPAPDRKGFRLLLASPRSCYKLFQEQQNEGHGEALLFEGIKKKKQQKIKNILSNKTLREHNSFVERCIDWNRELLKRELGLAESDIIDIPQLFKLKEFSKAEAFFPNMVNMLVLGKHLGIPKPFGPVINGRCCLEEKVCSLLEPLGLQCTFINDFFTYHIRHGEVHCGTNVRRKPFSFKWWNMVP
# PAD4 [11] = target: T1, PAD4; conditions: cited from earlier work
# Target sequence in this assay (Q9UM07 whole entry, species assumed): as the sequence (Q9UM07 whole entry) above
# Balb/c mice = assay: ACPA-induced systemic bone loss in mice, micro-CT of tibia; type: in vivo, mouse; conditions: s.c. twice daily 30 mg/kg/day for 6 days from day 6
# Description: Animal experiments were conducted using adult male Balb/c (Harlan) 15 weeks of age. Mice were housed in standard cages (3-5 per cage) in a climate controlled environment maintaining a 12-hour light/dark cycle with access to food and water ad libitum. All experiments were approved by the local ethics committee for animal experiments in Sweden. […] Starting day 6, the CXCR2 antagonist reparixin (L-lysin salt, HY-15252, MedChem Express) was injected subcutaneously (s.c. in 100 μl saline) twice daily (30 mg/kg/day) for 6 days. At the end of the study, mice were anesthetized using 4% isoflurane, decapitated and left hind leg removed and post-fixed in 4% PFA until further analysis.
# Bone structure was analyzed using a SkyScan 1176 micro-CT (Bruker) with a voxel size of 9 μm. The scanning was conducted at 50 kV/480 ρA with a 0.2 mm aluminum filter. The exposure time was 900 ms. The x-ray projections were obtained at 0.4° intervals with a scanning angular rotation of 180°. The projection images were reconstructed into 3-dimensional images using NRecon software (version 1.6.9.8; Bruker) and analyzed using CTVox software (version 2.7.0; Bruker). Trabecular bone in tibia located 644 μm from the proximal growth plate and extending 100.5 μm was analysed regarding BMD and 3D analysis and a volume of cortical bone in tibia mesasuring 617 μm in length, located in the distal tibia was measured for TMD, using CTAnalyzer software (version 1.14.4.1; Bruker). The 3D structures of each joint were blindly assessed by two observers (T.J. and M.M.).
# PAD4 [12] = target: T1, PAD4; conditions: cited from earlier work; remark: listed apart in the source
# Target sequence in this assay (Q9UM07 whole entry, species assumed): as the sequence (Q9UM07 whole entry) above
# [13] = early PAD inhibition, doses as low as 0.2 μM
molecule,measurement,setting,value
"NC(=O)CCl [2-Chloroacetamide (2CA), 2-Chloroacetamide]",pain (mechanical hypersensitivity) induced by ACPA antibody C03,mice,prevents
"N=C(CCl)NCCC[C@H](NC(=O)c1ccccc1)C(N)=O [Cl-amidine, N-α-benzoyl-N5-(2-chloro-1-iminoethyl)-L-Orn amide]",unstimulated OC differentiation (OC numbers),Mφ-derived OCs,dose-dependent inhibition; also recorded: dose-dependently inhibited
same,unstimulated OC differentiation (OC numbers),Mφ-derived OCs; listed as PADi,affects both unstimulated and ACPA-mediate osteoclastogenesis
same,unstimulated differentiation of OCs,Mφ-derived OCs; [13],no longer able to affect
same,ACPA-mediated osteoclastogenesis (OC activation),ACPA-stimulated OCs [1]; PADi added from the beginning of the cultures,not able to promote OCs activation; also recorded: affects both unstimulated and ACPA-mediate osteoclastogenesis; also recorded: prevented
same,ACPA-mediated osteoclastogenesis,ACPA-stimulated OCs [1]; [13],still able to inhibit; also recorded: inhibits
same,ACPA-mediated osteoclastogenesis,"ACPA-stimulated OCs [1]; late PAD inhibition (three days before ending the OC cultures), doses as high as 20 μM",affects only ACPA-mediated osteoclastogenesis
same,ACPA-induced calcium phosphate resorption,ACPA-stimulated OCs [2],prevented
same,OC differentiation from iDC,iDC-derived OCs,dose-dependent inhibition
same,"cell death, LDH release in the supernatants",OCs,without inducing cell death; also recorded: without any cytotoxic effect
same,fibroblast migration (migration index),[3],no changes; also recorded: does not affect
same,fibroblast survival (LDH assay),[4],no changes; also recorded: does not affect
same,staining intensity of citrullinated targets in OCs after PAD inhibitor treatment,[5],markedly diminished
same,disease activity in collagen-induced arthritis,[6],decreases disease activity
same,bone damage in collagen-induced arthritis,[6]; in the context of lower synovial inflammation,lower bone damage
same,effect on antibody-mediated arthritis,[7],no effect
"COc1cc(C(=O)N2CC[C@@H](O)[C@@H](N)C2)cc2nc(-c3cc4ccccc4n3CC3CC3)n(C)c12 [GSK484, [(3S,4R)-3-amino-4-hydroxy-1-piperidinyl][2-[1-(cyclopropylmethyl)-1H-indol-2-yl]-7-methoxy-1-methyl-1H-benzimidazol-5-yl]-methanone]",formation of neutrophil extracellular traps,mouse neutrophils,inhibits
same,formation of neutrophil extracellular traps,human neutrophils,inhibits
same,pharmacokinetic profile,[8],favorable
same,pharmacokinetic profile,[9],favorable
same,citrullination of PAD4 target proteins in human neutrophils,PAD4 [10],blocks
"Cn1c(-c2nc3cc(C(=O)N4CCCC(N)C4)ccc3n2C)cc2ccccc21 (stereo not drawn) [GSK-121, (3-amino-1-piperidinyl)[1-methyl-2-(1-methyl-1H-indol-2-yl)-1H-benzimidazol-5-yl]-methanone, 2,2,2-trifluoroacetate]",IC50,"PAD4 [11]; functional assay, read-out: IC50, inhibition of citrullination of PAD4 target proteins",3200 nM
CC(C)Cc1ccc([C@@H](C)C(=O)NS(C)(=O)=O)cc1 [reparixin],ACPA-induced change of bone volume fraction,Balb/c mice,reversed
same,ACPA-induced change of trabecular bone mineral density (BMD),Balb/c mice,reversed
same,ACPA-induced change of trabecular number,Balb/c mice,reversed
"(3-amino-1-piperidinyl)[1-methyl-2-(1-methyl-1H-indol-2-yl)-1H-benzimidazol-5-yl]-methanone, 2,2,2-trifluoroacetate [GSK199]",inhibition of citrullination of PAD4 target proteins,PAD4 [11],can inhibit
same,IC50,PAD4 [12]; binds to the low-calcium form of the enzyme,200 nM
same,selectivity for PAD4 over PAD1-3,PAD4 [12],selective for PAD4 over PAD1-3
same,formation of neutrophil extracellular traps,mouse neutrophils,diminish
adalimumab,effect of ACPAs on osteoclastogenesis,ACPA-stimulated OCs [1]; antibody concentrations as high as 10 μg/ml,No such effects
